Tested on: 485368-065-R3-J5-PDC spheroids with HUVEC/MSC, viability
Assay: Anticancer human tumor 485368-065-R3-J5-PDC patient-derived pancreatic carcinoma cell line growth inhibition [RAS]
Conditions: for IC50: curve of first compound; for viability, T/C: stronger effect = lower value
In short: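 Tumour cells grown as complex spheroids with HUVEC endothelial cells and mesenchymal stem cells, treated with RAS pathway inhibitor combinations. Each agent spans half-log steps from near clinical Cmax, or 10 microM where Cmax is unknown.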

[1] = second compound 0.0316 µM, first compound 0.0316 µM
[2] = second compound 0.0316 µM, first compound 0.1 µM
[3] = second compound 0.0316 µM, first compound 0.316 µM
[4] = second compound 0.0316 µM, first compound 1 µM
[5] = second compound 0.0316 µM, first compound 3.16 µM
[6] = second compound 0.0316 µM, first compound 10 µM
[7] = second compound 0.1 µM, first compound 0.0316 µM
[8] = second compound 0.1 µM, first compound 0.1 µM
[9] = second compound 0.1 µM, first compound 0.316 µM
[10] = second compound 0.1 µM, first compound 1 µM
[11] = second compound 0.1 µM, first compound 3.16 µM
[12] = second compound 0.1 µM, first compound 10 µM
[13] = second compound 0.316 µM, first compound 0.0316 µM
[14] = second compound 0.316 µM, first compound 0.1 µM
[15] = second compound 0.316 µM, first compound 0.316 µM
[16] = second compound 0.316 µM, first compound 1 µM
[17] = second compound 0.316 µM, first compound 3.16 µM
[18] = second compound 0.316 µM, first compound 10 µM
[19] = second compound 1 µM, first compound 0.0316 µM
[20] = second compound 1 µM, first compound 0.1 µM
[21] = second compound 1 µM, first compound 0.316 µM
[22] = second compound 1 µM, first compound 1 µM
[23] = second compound 1 µM, first compound 3.16 µM
[24] = second compound 1 µM, first compound 10 µM
[25] = second compound 3.16 µM, first compound 0.0316 µM
[26] = second compound 3.16 µM, first compound 0.1 µM
[27] = second compound 3.16 µM, first compound 0.316 µM
[28] = second compound 3.16 µM, first compound 1 µM
[29] = second compound 3.16 µM, first compound 3.16 µM
[30] = second compound 3.16 µM, first compound 10 µM
[31] = second compound 10 µM, first compound 0.0316 µM
[32] = second compound 10 µM, first compound 0.1 µM
[33] = second compound 10 µM, first compound 0.316 µM
[34] = second compound 10 µM, first compound 1 µM
[35] = second compound 10 µM, first compound 3.16 µM
[36] = second compound 10 µM, first compound 10 µM
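Also: spheroids exposed to agents for seven days before readout.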

Work on `CC(=O)OC12COC1CC(O)C1(C)C(=O)C(O)C3=C(C)C(OC(=O)C(O)C(NC(=O)OC(C)(C)C)c4ccccc4)CC(O)(C(OC(=O)c4ccccc4)C21)C3(C)C` (stereo not drawn) + C#Cc1c(F)ccc2cc(O)cc(-c3ncc4c(N5CC6CCC(C5)N6)nc(OCC56CCCN5CC(F)C6)nc4c3F)c12 yielded an IC50 (second compound 0.0316 µM) of less than 31.6 nM, an IC50 (second compound 0.1 µM) of less than 31.6 nM and an IC50 (second compound 0.316 µM) of less than 31.6 nM. The IC50 (second compound 1 µM) was less than 31.6 nM, the IC50 (second compound 3.16 µM) was less than 31.6 nM and the IC50 (second compound 10 µM) was less than 31.6 nM. It also gave a viability, T/C [1] of 12.5%, a viability, T/C [2] of 12.5% and a viability, T/C [3] of 13%. It also gave a viability, T/C [4] of 12.7%, a viability, T/C [5] of 18.7% and a viability, T/C [6] of 23.6%. For the same compound, the viability, T/C [7] was 11%, the viability, T/C [8] was 10.2% and the viability, T/C [9] was 14.2%. For the same compound, the viability, T/C [10] was 14.4%, the viability, T/C [11] was 19.8% and the viability, T/C [12] was 16.9%. For the same compound, the viability, T/C [13] was 13%, the viability, T/C [14] was 13.3% and the viability, T/C [15] was 17.1%. For the same compound, the viability, T/C [16] was 14.9%, the viability, T/C [17] was 15.4% and the viability, T/C [18] was 14.4%. The viability, T/C [19] was 11.2%, the viability, T/C [20] was 13.9% and the viability, T/C [21] was 12.4%. For the same compound, the viability, T/C [22] was 16.5%, the viability, T/C [23] was 14.7% and the viability, T/C [24] was 26.3%. For the same compound, the viability, T/C [25] was 11.3%, the viability, T/C [26] was 9.14% and the viability, T/C [27] was 12%. The viability, T/C [28] was 15.7%, the viability, T/C [29] was 19.1% and the viability, T/C [30] was 16.1%. For the same compound, the viability, T/C [31] was 12.9%, the viability, T/C [32] was 11.2% and the viability, T/C [33] was 10.8%. It also gave a viability, T/C [34] of 14.3%, a viability, T/C [35] of 14.7% and a viability, T/C [36] of 19.1%.
`Cc1nc(N2CCC3(CC2)COC(C)C3N)c(CO)nc1Sc1ccnc(N)c1Cl` (stereo not drawn) + C#Cc1c(F)ccc2cc(O)cc(-c3ncc4c(N5CC6CCC(C5)N6)nc(OCC56CCCN5CC(F)C6)nc4c3F)c12 was tested, and the IC50 (second compound 0.0316 µM) was greater than 10000 nM, the IC50 (second compound 0.1 µM) was greater than 10000 nM and the IC50 (second compound 0.316 µM) was 1910 nM. For the same compound, the IC50 (second compound 1 µM) was 821 nM, the IC50 (second compound 3.16 µM) was 106 nM and the IC50 (second compound 10 µM) was less than 31.6 nM. The viability, T/C [1] was 98.3%, the viability, T/C [2] was 88.5% and the viability, T/C [3] was 87.3%. The viability, T/C [4] was 75.1%, the viability, T/C [5] was 60% and the viability, T/C [6] was 58.8%. The viability, T/C [7] was 110%, the viability, T/C [8] was 92.3% and the viability, T/C [9] was 74%. It also gave a viability, T/C [10] of 62.7%, a viability, T/C [11] of 63.6% and a viability, T/C [12] of 51.8%. It also gave a viability, T/C [13] of 101%, a viability, T/C [14] of 89.6% and a viability, T/C [15] of 78.5%. The viability, T/C [16] was 52.4%, the viability, T/C [17] was 47.5% and the viability, T/C [18] was 44%. The viability, T/C [19] was 91.5%, the viability, T/C [20] was 77.2% and the viability, T/C [21] was 56.7%. The viability, T/C [22] was 47.6%, the viability, T/C [23] was 42.2% and the viability, T/C [24] was 30%. The viability, T/C [25] was 65.9%, the viability, T/C [26] was 49.7% and the viability, T/C [27] was 39.1%. For the same compound, the viability, T/C [28] was 31.9%, the viability, T/C [29] was 24.7% and the viability, T/C [30] was 21.6%. It also gave a viability, T/C [31] of 36.3%, a viability, T/C [32] of 29.7% and a viability, T/C [33] of 24.3%. It also gave a viability, T/C [34] of 19.9%, a viability, T/C [35] of 19.7% and a viability, T/C [36] of 12.8%.
For `NC1c2ccccc2OC12CCN(c1cnc3c(N4CCCc5ncccc54)n[nH]c3n1)CC2` (stereo not drawn) + C#Cc1c(F)ccc2cc(O)cc(-c3ncc4c(N5CC6CCC(C5)N6)nc(OCC56CCCN5CC(F)C6)nc4c3F)c12, the IC50 (second compound 0.0316 µM) was greater than 10000 nM, the IC50 (second compound 0.1 µM) was 2380 nM and the IC50 (second compound 0.316 µM) was 1020 nM. The IC50 (second compound 1 µM) was 117 nM, the IC50 (second compound 3.16 µM) was less than 31.6 nM and the IC50 (second compound 10 µM) was less than 31.6 nM. The viability, T/C [1] was 82.1%, the viability, T/C [2] was 79.2% and the viability, T/C [3] was 70.9%. For the same compound, the viability, T/C [4] was 66.3%, the viability, T/C [5] was 72.1% and the viability, T/C [6] was 55%. It also gave a viability, T/C [7] of 76%, a viability, T/C [8] of 72.9% and a viability, T/C [9] of 61.7%. The viability, T/C [10] was 60.7%, the viability, T/C [11] was 44.2% and the viability, T/C [12] was 43.9%. The viability, T/C [13] was 69.9%, the viability, T/C [14] was 61.6% and the viability, T/C [15] was 58.6%. The viability, T/C [16] was 54.4%, the viability, T/C [17] was 35.5% and the viability, T/C [18] was 28.8%. It also gave a viability, T/C [19] of 60.3%, a viability, T/C [20] of 47.4% and a viability, T/C [21] of 43.4%. The viability, T/C [22] was 37.9%, the viability, T/C [23] was 28.9% and the viability, T/C [24] was 18.9%. The viability, T/C [25] was 40%, the viability, T/C [26] was 33.7% and the viability, T/C [27] was 27.5%. It also gave a viability, T/C [28] of 23.7%, a viability, T/C [29] of 17.8% and a viability, T/C [30] of 17.5%. The viability, T/C [31] was 23.3%, the viability, T/C [32] was 20.3% and the viability, T/C [33] was 17.9%. It also gave a viability, T/C [34] of 14.2%, a viability, T/C [35] of 13% and a viability, T/C [36] of 12.8%.
In the case of `Nc1ccn(C2OC(CO)C(O)C2(F)F)c(=O)n1` (stereo not drawn) + C#Cc1c(F)ccc2cc(O)cc(-c3ncc4c(N5CC6CCC(C5)N6)nc(OCC56CCCN5CC(F)C6)nc4c3F)c12, the IC50 (second compound 0.0316 µM) is reported as 6.36 nM, the IC50 (second compound 0.1 µM) is reported as 6.3 nM and the IC50 (second compound 0.316 µM) is reported as 6.51 nM. For the same compound, the IC50 (second compound 1 µM) was 6.09 nM, the IC50 (second compound 3.16 µM) was 5.96 nM and the IC50 (second compound 10 µM) was less than 3.16 nM. For the same compound, the viability, T/C (second compound 0.0316 µM, first compound 0.00316 µM) was 98.4%, the viability, T/C (second compound 0.0316 µM, first compound 0.01 µM) was 18.8% and the viability, T/C [1] was 8.96%. The viability, T/C [2] was 11.8%, the viability, T/C [3] was 11.1% and the viability, T/C [4] was 14.4%. It also gave a viability, T/C (second compound 0.1 µM, first compound 0.00316 µM) of 93.6%, a viability, T/C (second compound 0.1 µM, first compound 0.01 µM) of 20.7% and a viability, T/C [7] of 10.9%. It also gave a viability, T/C [8] of 9.95%, a viability, T/C [9] of 11.6% and a viability, T/C [10] of 12.8%. It also gave a viability, T/C (second compound 0.316 µM, first compound 0.00316 µM) of 94.5%, a viability, T/C (second compound 0.316 µM, first compound 0.01 µM) of 23.5% and a viability, T/C [13] of 10.9%. For the same compound, the viability, T/C [14] was 10.3%, the viability, T/C [15] was 11.8% and the viability, T/C [16] was 11.8%. For the same compound, the viability, T/C (second compound 1 µM, first compound 0.00316 µM) was 90.4%, the viability, T/C (second compound 1 µM, first compound 0.01 µM) was 19.5% and the viability, T/C [19] was 12.1%. For the same compound, the viability, T/C [20] was 8.97%, the viability, T/C [21] was 10.8% and the viability, T/C [22] was 11%. The viability, T/C (second compound 3.16 µM, first compound 0.00316 µM) was 89%, the viability, T/C (second compound 3.16 µM, first compound 0.01 µM) was 18.3% and the viability, T/C [25] was 9.24%. For the same compound, the viability, T/C [26] was 9.65%, the viability, T/C [27] was 9.37% and the viability, T/C [28] was 9.7%. It also gave a viability, T/C (second compound 10 µM, first compound 0.00316 µM) of 37.7%, a viability, T/C (second compound 10 µM, first compound 0.01 µM) of 20.8% and a viability, T/C [31] of 8.12%. It also gave a viability, T/C [32] of 7.5%, a viability, T/C [33] of 8.95% and a viability, T/C [34] of 9.6%.
